Values of other authors in US20200129499A1, “COMBINATION OF TASQUINIMOD OR A PHARMACEUTICALLY ACCEPTABLE SALT THEREOF AND A PD-1 AND/OR PD-L1 INHIBITOR, FOR USE AS A MEDICAMENT” (ACTIVE BIOTECH AB, priority 2015, published 2020).

System: metastatic bladder cancer
Conditions: phase 1a study, cited from earlier work

atezolizumab: anti-PD-L1 human IgG1 antibody (Roche)
people alive at 1 year (people with the highest levels of PD-L1 expression): 57% | Complete responses (CRs) (metastatic bladder cancer): 20%
